Data published in patent US7795223B2, “Treatment of inflammatory airway disease” (Novozymes Biopharma Au Ltd., priority 2004, dated 2010).

Key:
BALB/c mice [1] = assay: Murine OVA model of asthma: BAL cell counts and lung histology; type: in vivo, mouse; settings: for eosinophilia on lung histology / eosinophil infiltration into lung tissue: peptide i.n. 24 h before i.n. OVA challenge
Description: A murine model in which immunization with ovalbumin (OVA) is used to induce asthma-like symptoms in normal Balb/c mice was employed. This model is described in Archer et al. 2004.
Mice were immunized against OVA by i.p. injection and fourteen days later an intra-nasal (i.n.) challenge dose of OVA protein was administered. Three days later the degree of airway inflammation was assessed by bronchoalveolar lavage (BAL,) followed by counting the infiltrating leukocytes. In addition, the lungs were sectioned and stained with haematoxylin and eosin for histological analysis. In a preliminary experiment, live mice were monitored after treatment using whole body plethysmography to assess the degree of airway obstruction.
Female BALB/c mice (6-8 wk of age) were injected i.p. with 10 μg of OVA (Sigma-Aldrich, St. Louis, Mo.) in 200 μl of alum adjuvant (Serva, Heidelberg, Germany) on day 1. Fourteen days after the i.p. immunization, mice were anaesthetized by an i.p. injection of a mixture of ketamine and xylazine (Sigma-Aldrich), and treated i.n. with 50 μl of PBS containing 100 μg of OVA.
In preliminary experiments the peptide or “mock” peptide was given at either of two different time points (24 h prior to i.p. OVA sensitization or 24 h prior to i.n. OVA challenge) at a final concentration of either 1 mM (solution) or 50 mM (suspension) in phosphate-buffered saline (PBS; 0.02 M sodium phosphate buffer with 0.15 M sodium chloride, pH adjusted to 7.4.). The 50 mM concentration of the TCR peptide was chosen because 500 μM was the optimal blocking concentration for T cells in in vitro experiments. However, experiments using titration of the peptide will be used to determine the optimal dose. A 100 μl volume of formulated peptide was administered to the mice intranasally. […]
Three days after the i.n. challenge with OVA, the mice from the different groups were sacrificed, the tracheas were cannulated, and a BAL was performed by flushing lung and airways five times with 1 ml of PBS. BAL cells were counted and spun on to glass slides using a cytospin (Shandon Southern Products, Asmoor, U.K.), and then stained with Diff-Quik (Roche Diagnostics, Mannheim, Germany) according to the manufacturer's instructions. […]
Percentages of macrophages, lymphocytes, neutrophils, and eosinophils were determined microscopically using standard histological criteria.
On days 1-6 after the last intranasal challenge with either OVA or saline, the lungs were analyzed by histology. […] The number of eosinophils in the lungs was quantified microscopically using a calibrated stage. […]

BALB/c mice [2] = assay: Whole body plethysmography of airway obstruction in the murine OVA model; type: in vivo, mouse; settings: preliminary experiment, peptide before allergen challenge, days 0-6
Description: Mice were immunized against OVA by i.p. injection and fourteen days later an intra-nasal (i.n.) challenge dose of OVA protein was administered. Three days later the degree of airway inflammation was assessed by bronchoalveolar lavage (BAL,) followed by counting the infiltrating leukocytes. In addition, the lungs were sectioned and stained with haematoxylin and eosin for histological analysis. In a preliminary experiment, live mice were monitored after treatment using whole body plethysmography to assess the degree of airway obstruction. The effects of antigen challenge on airway hyperreactivity of mice in the experimental model described above can be measured by whole body plethysmography. This can be used to make an accurate comparison with the airway hyperreactivity observed in human asthmatics. The mice are anesthetized with pentobarbitol (70-90 mg/kg body weight, i.p.), and the jugular vein is cannulated with PE 10 silastic tubing. The tracheae are then intubated with a specially-angled 18 gauge needle, the chest opened, and the tubing connected to a Harvard ventilator (tidal volume=0.2 ml, frequency 120 breaths/min, positive end-expiratory pressure 2.5-3.0 cm H2 O) and placed in a whole body plethysmograph. This ventilation maintains normal arterial blood gases in the subject mouse. The dead space volume is 0.025 ml. […]

Brown Norway rats = assay: Brown Norway rat OVA model of asthma: BAL leukocytes, eosinophil peroxidase and myeloperoxidase; type: in vivo; settings: administration prior to challenge with allergen
Description: The Brown Norway rat model was also employed to test the effects of TCR mimic peptides on reducing the symptoms of asthma. Similarly to the murine model described above, this model also involves immunisation with OVA. The model is described in Elwood, 1991. The model is illustrated in FIG. 5. In this model 10 rats were used per treatment group.
Rats were immunized against OVA by s.c. injection on Day 1, 14 and 21, and on Day 28 an inhalation challenge dose of OVA protein was administered. One day later (Day 29) the degree of airway inflammation was assessed by bronchoalveolar lavage (BAL), followed by counting of the infiltrating leukocytes and measurement of the activity of eosinophil peroxidase and myeloperoxidase.
Male Brown Norway rats (approximately 8 wks of age) were injected s.c. with 10 μg of OVA in 1 ml of alum adjuvant on day 1, 14 and 21. Concurrently, the animals received an i.p. injection of 0.25 ml Bordetella pertussis vaccine (Trivax-Evans Medical). Seven days. after the final sensitizing dose, the animals were restrained and exposed, nose only, to an aerosol of 10 mg/ml OVA for 1 h using a Wright nebuliser.
In these experiments the peptide was administered either intra-tracheally (i.t) (3 mg/ml, 50 μl in 0.9% saline per rat, 24 hours before OVA challenge), intra-nasally (i.n.) (50 mg/ml, 100 μl in 0.9% saline per rat, 24 hours before OVA challenge) or by inhalation (0.1 mg/ml in 0.9% saline, 50 ml delivered by aerosol at a flow rate of 1 ml/min, for a total of 50 minutes, using a Wright nebuliser to ten (10) rats, 24 h and 4 h prior to OVA challenge). […]
Twenty-four hours after the challenge with OVA, the rats from the different groups were anaesthetized by an i.p injection of sodium pentobarbital (100 mg/kg). […] The BAL fluid was centrifuged and the collected cells resuspended in 2 ml of PBS and the total number of leukocytes recovered were counted. The activity of eosinophil peroxidase and myeloperoxidase in the supernatant, following centrifugation (i.e., the cell-free BAL fluid) was determined by the method described in Schneider et al. 1997.

T cells = assay: Blocking of T cell function; type: cell-based; settings: in vitro experiments
sensitised animals = settings: applied topically following application of a contact allergen; cited from earlier work
[3] = system: human patients with psoriasis, atopic eczema, lichen planus, or contact dermatitis; settings: cited from earlier work

Substance: NH2-Gly-Leu-Arg-Ile-Leu-Leu-Leu-Lys-Val-OH (H-GLRILLLKV-OH) [peptide, 9 amino acids, murine TCR-α transmembrane chain]
- asthma symptoms (BALB/c mice [1]; asthmatic mice, non-transgenic system): reduces asthma symptoms
- eosinophilia in BAL (BALB/c mice [1]; group C: peptide i.n. 24 h before i.n. OVA challenge, two independent experiments, pooled data): significant decrease
- eosinophilia on lung histology / eosinophil infiltration into lung tissue (BALB/c mice [1]; two independent experiments, pooled data): significant decrease
- eosinophilia on lung histology / eosinophil infiltration into lung tissue (BALB/c mice [1]; two independent experiments, pooled data, listed as TCR mimic peptide): marked reduction
- airway obstruction measured by whole body plethysmography (BALB/c mice [2]): significant effects
- airway obstruction measured by whole body plethysmography (BALB/c mice [2]; listed as TCR mimic peptide): significant reduction
- eosinophil peroxidase activity in bronchoalveolar lavage fluid (Brown Norway rats): reduction
- leukocyte infiltration into lung tissue (Brown Norway rats): marked reduction
- myeloperoxidase activity in bronchoalveolar lavage fluid (Brown Norway rats): reduction
- optimal blocking concentration for T cells (T cells): 500 µM
- development of contact sensitivity (sensitised animals): inhibited development of contact sensitivity
- therapeutic activity in human patients [3]: showed therapeutic activity
